Patent US6998413B1, “Treatment of neoplasms with yujungamycins” (priority 1999, dated 2006)
“Also recorded” adds a separate entry of the source.

How the values were obtained:
[1] = tested on: Poly [dA] Poly [dT]; experiment: Alkylation of DNA by reduced PBIs; type: biochemical; settings: reduced PBI (H2, Pd on carbon), pH 7.4 tris buffer, 30° C., 24 h
Method: (§1) Alkylation of DNA by Reduced PBIs. To a mixture of 1–2 mg of DNA (poly[dA]. poly[dT], poly[dG]. poly[dC], poly[dA-dT]. poly[dT-dA]) in 2.0 mL of 0.05 M of pH 7.4 tris buffer and 2 mg of Pd on carbon was added a five-to-one base pair equivalent amount of the PBI dissolved in 0.5 mL of dimethylsulfoxide. The resulting solution was degassed under argon for 30 min., after which the mixture was purged with H2 for 10 min. The solution was then purged with argon for 10 min. and the placed in a 30° C. bath for 24 h. The reaction was opened to the air and the catalyst was removed with a Millex-PF […] syringe filter. The filtrate was adjusted to 0.3M acetate with a 3M stock solution of pH 5.1 acetate and the diluted with two volumes of ethanol. The mixture was chilled at −20° C. for 12 h and the DNA pellet collected by centrifuging at 12,000 g for 20 min. The pellet was redissolved in water and then precipitated and centrifuged again. The resulting pellet was suspended in ethanol, centrifuged, and dried.

[2] = tested on: Poly [dG] Poly [dC]; experiment: Alkylation of DNA by reduced PBIs; type: biochemical; settings: reduced PBI (H2, Pd on carbon), pH 7.4 tris buffer, 30° C., 24 h
Method: as §1

[3] = tested on: DT-diaphorase; experiment: DT-Diaphorase reduction kinetics; type: biochemical; settings: pH 7.4 tris.HCl, anaerobic, 30° C., 0.3 mM NADH, 14.5 nM enzyme active sites
Method: DT-Diaphorase Reduction Kinetics Studies. Kinetic studies were carried out in 0.05 M pH 7.4 tris.HCl buffer, under anaerobic conditions, employing Thunberg cuvettes. A 2 mM stock solution of the appropriate PBI or APBI was prepared in dimethyl sulfoxide (DMSO). To the top port was added the quinone stock and to the bottom port was added DT-diaphorase and NADH in the tris buffer. The top and bottom ports were purged with argon for 20 minutes and equilibrated to 30° C. The ports were then mixed and the reaction followed at 296 nm for 25 minutes to obtain initial rates. The concentrations upon after mixing were 0.3 mM NADH, 1 to 20×10^-5 M quinone, and 14.5 nM (based on flavin) of enzyme active sites. The value of Δε was calculated from the initial and final absorbance values for complete quinone reduction, usual value for Δε is 6000 to 8000 M−1 cm−1. The value of Δε was used to calculate Vmax in M sec-1. The results were fitted to a Lineweaver-Burke plot from which kcat/Km values were calculated based on 14.5 nM of active sites.

[4] = tested on: Human tumor cells; experiment: Hollow fiber assay (in vivo screen, National Cancer Institute); settings: for Total Score (hollow fiber score): 12 cell lines × 2 sites × 2 doses, highest possible score 96; for Intraperitonal Score: fibers implanted intraperitoneally; for Intraperitonal Score / Subcutaneous Score: IP dosing QD×4, high and low dose, score of two per test with % T/C of 50 or less; for Subcutaneous Score: fibers implanted subcutaneously; for Cancer cell line types sensitive: hollow fiber assay
Method: Hollow fiber assays are carried out in the following way. Human tumor cells are cultivated in polyvinylidene fluoride hollow fibers, and a sample of each cell line is implanted into each of two physiological compartments (intraperitoneally and subcutaneously). Mice are treated with either a high or a low dose using a QD×4 schedule (four daily treatments) administered intraperitoneally. Altogether, twelve cell lines are studied resulting in 48 possible test combinations (12 cell lines×2 sites×2 doses). […] These compounds are covered by two patents. (Skibo, E. B. and Islam, I. Synthesis and Elucidation of Azamitosene and Iminoazamitosene. U.S. Pat. No. 5,015,742 1991; Skibo, E. B., Islam, I. and Alberts, D. S., Antineoplastic Agents and Methods of Using the Same. U.S. Pat. No. 5,246,955, 1993).

[5] = tested on: B-16 melanoma; experiment: B-16 melanoma model (syngraft) in C57/bl mice; type: in vivo; settings: 1 and 3 mg/Kg IP on days 1, 5, and 9 after tumor implantation into front flank muscle
Method: These compounds were studied at two dose levels: 1 and 3 mg/Kg IP on days 1, 5, and 9 after tumor implantation into the front flank muscle. Shown in the bar graph is the area under the tumor versus time curve plotted against dose for each enantiomer.

[6] = tested on: cancer cell lines; experiment: Cytotoxicity (−log LC50) against cancer cell lines by cancer type; type: cell-based; settings: for cytotoxicity (in words): cancer cell lines, FIG. 2 and FIG. 4
From the text: Each −log LC50 value is the average of up to eight values.
FIG. 4. illustrates the plots of −Log LC50 versus cancer type for S(−)-1, 2, 3. Each cancer type represents the average of six to eight different cancer cell lines.

| Molecule | Vmax [3] | Percentages of PBI Incorporation into DNA [1] | Percentages of PBI Incorporation into DNA [2] | Total Score (hollow fiber score) [4] | Intraperitonal Score [4] | Subcutaneous Score [4] | also measured |
| --- | --- | --- | --- | --- | --- | --- | --- |
| 3-Amino-6-azindinyl-2,3-dihydro-7-methyl-1H-pyrrolo[1,2-a]benzimidazole-5,8-dione [S(−)-B] | – | – | – | – | – | – | Percentages of PBI Incorporation into DNA ([1]; listed as S(−)−B): 186%; Percentages of PBI Incorporation into DNA ([2]; listed as S(−)−B): 52% |
| 3-Carbamido-6-aziridinyl-2,3-dihydro-7-methyl-1H-pyrrolo[1,2-a]benzimidazole-5,8-dione [S(−)-C] | 21.8 nM/s | 70% | 12.4% | – | – | – | – |
| CC1=C(N2CC2)C(=O)c2nc3n(c2C1=O)CCC3OC(N)=O (centres unmarked) [PBI-B] | – | – | – | 30 | 24 | 6 | Cancer cell line types sensitive [4]: melanoma, NSC lung cancer, breast cancer, and ovarian cancer; activity in the hollow fiber assay / in vivo [4]: active in the hollow fiber assay |
| CC(=O)NC1CCn2c1nc1c2C(=O)C(C)=C(N2CC2)C1=O (stereo not drawn) [S(−)-A] | 47.6 nM/s | 17.4% | 6.6% | 52 | 38 | 14 | activity in B-16 melanoma model (area under the tumor versus time curve) ([5]; listed as S(−) Yujungamycin A): failed to show much difference in activity between the enantiomers; also recorded: no apparent differences between the enantiomers; activity in B-16 melanoma model (area under the tumor versus time curve) ([5]; listed as S(−)-Yujungamycin A): activity |
| 3-Carbamido-6-aziridinyl-2,3-dihydro-7-methyl-1H-pyrrolo[1,2-a]benzimidazole-5,8-dione [R(+)-C] | 39.3 nM/s | 31% | 17% | – | – | – | – |
| 3-Amino-6-azindinyl-2,3-dihydro-7-methyl-1H-pyrrolo[1,2-a]benzimidazole-5,8-dione [R(+)-B] | 14.6 nM/s | – | – | – | – | – | Percentages of PBI Incorporation into DNA ([1]; listed as R(+)−B): 60%; Percentages of PBI Incorporation into DNA ([2]; listed as R(+)−B): 105% |
| CC(=O)OC1CCN2C1=NC1C(=O)C(N3CC3)=C(C)C(=O)C12 (centres unmarked) [PBI-A] | – | – | – | 48 | 40 | 8 | Cancer cell line types sensitive [4]: melanoma, NSC lung cancer, breast cancer, and ovarian cancer; activity in the hollow fiber assay / in vivo [4]: active in the hollow fiber assay |
| 3-Amino-6-azindinyl-2,3-dihydro-7-methyl-1H-pyrrolo[1,2-a]benzimidazole-5,8-dione [Yujungamycin B] | – | – | – | – | – | – | cytotoxicity (in words) [6]: high potency; cytotoxicity (in words) ([6]; listed as 2): high cytotoxicity against non-small-cell lung, central nervous system, melanoma, ovarian, and renal cancers; change in cytotoxicity, 3-hydroxy changed to 3-amino ([6]; relative to the 3-hydroxy derivative): ˜million-fold change in cytotoxicity |
